Columns and labels:
[1] = test system: L929; assay: TNF-gamma activity on L929 cells (MTS cytotoxicity/proliferation, morphology); format: cell-based, mouse; set-up: key to Proliferation / Differentiation / Adhesion: The numbers of “+” indicate the relative level of activities.; ++: The numbers of “+” indicate the relative level of activities.; +++: The numbers of “+” indicate the relative level of activities.; “−” indicates no detected activity at the concentration range tested
Method: The adherent target cells were prepared from confluent cultures by trypsinization in PBS, and non-adherent target cells were harvested from stationary cultures and washed once with medium. Target cells were suspended at 3×10^5 cells/ml in medium containing 10% FCS. 0.1 ml aliquots were dispensed into 96-well flat-bottomed microtiter plates containing 0.1 ml serially diluted test samples of cells (WEHI 164 and L929). Incubation was continued for 70 hours. TNF-alpha, TNF-beta and bacterially-produced TNF-gamma were added at a 0.5 μg/ml concentration. The cytotoxicity and proliferation activity was quantified using an MTS assay performed by the addition of 20 μl of MTS and phenazine methosulfate (PMS) solution to each well. After a three hour incubation, the OD at 492 nm was measured by an ELISA plate reader. The OD492 is proportional to the number of viable cells in the wells. The percent of cytotoxicity was calculated as follows: […]. The photographs were taken after 72 hours.
In the graph of FIG. 7B, the assay was performed as described above, however, increasing amounts of TNF-alpha, TNF-beta and TNF-gamma were added to the cultures.

[2] = test system: bFGF-induced corneal neovascularization; assay: Corneal angiogenic assay; format: in vivo, rat
Text: Basic FGF (“bFGF”) has been tested in this corneal angiogenic assay in various research laboratories for a variety of purposes. It has been shown that bFGF can induce significant angiogenesis in corneas (e.g., in rabbits, rats and mice). Based on the previous studies, bFGF was used in our study of TNF-gamma as an angiogenic factor to induce the growth of blood vessels in rat corneas.
An incision, 1-1.5 mm in length, is made in the center of the cornea with a microsurgery scalpel blade.
Starting at the incision, a micropocket is created between the collagenous layers of the corneal stroma with a Castroviego cyclodialysis spatula. This pocket extends to a point 1-2 mm from the capillary bed at the corneal-scleral limbus.
bFGF, which is incorporated 1:1 into non-inflammatory Hydron polymer (available from Interferon Sciences, New Brunswick, N.J.), is implanted into the pocket.
Five or seven days after corneal implantation, corneal blood perfusion with colloidal carbon is performed. Corneas are then harvested, fixed, flattened, mounted and photographed for morphology.
An image analysis system (IPLab) is used to quantify the corneal angiogenesis. The corneal surface area, which is covered by the new blood vessels, is quantified and used in our current study. After corneal implantation surgery, TNF-gamma, angiostatin or PBS in a volume of 25 microliters was injected into the conjunctival region adjacent to the implantation site. Based on molarities of TNF-gamma and angiostatin, 10 micrograms of TNF-gamma or 5 micrograms of angiostatin were given respectively four times, once a day, during the first four days post-surgery. TNF-gamma and angiostatin were prepared in PBS.
bFGF was used to induce neovascularization of the cornea from preexisting pericorneal limbal vessels in two different versions of the assay. First, corneas were surgically implanted with hydrogel plugs containing bFGF. […] In a separate study using an alternate version of this assay, both bFGF and treatment protein were co-administered on a nitrocellulose filter disk implanted within the rat corneal stroma. […] In both assays, the surface area of the angiogenic response was quantitated from digital images of treated corneas five days following implantation.

[3] = test system: NF-kappaB p65 DNA-binding in U-937 cells; assay: NF-kappaB activation (EMSA); format: cell-based
Text: Activation of cellular NF-kappaB is preceded by the phosphorylation, ubiquitination, and ultimate degradation of an endogenous NF-kappaB inhibitor molecule designated IkBa. Degradation of the inhibitor allows the p65 subunit of NF-kappaB to translocate to the nucleus where it can act as a transcriptional regulator. For this reason, a electrophoretic mobility shift analysis (EMSA) is an appropriate method for analyzing activation of cellular NF-kappaB by treatment of cultured cells with TNF-gamma.
In these analyses cells (2×10^6 per ml) were treated with different concentrations (0.1-1.0 μg/ml) of bacterially-produced TNF-gamma at 37° C. for 12 hours. Nuclear extracts were then prepared from the cultured cells and EMSA was performed as is well-known in the art and essentially as described (Singh, S. and Aggarwal, B. B. J. Biol. Chem. 270:10631-10636 (1995)).

[4] = test system: MC-38 murine colon cancer; assay: In vivo tumorigenicity assay, syngeneic MC-38 colon cancer; set-up: species or system C57BL6/6 mice; conditions: local production by transfected MCA 38 cells, 1×10^6 cells/mouse
Method: [The full-length TNF-gamma and extracellular domain of DR3 was cloned into pcDNA3 expression vector and transfected to MCA 38 cells, respectively. After selection and cloning, three clones from each constructs were picked for tumorigenicity study. MCA 38 cells (1×10^6 cells/mouse) expressing TNF-gamma or DR3 extracellular domain were injected into C57BL6/6 mice. The tumor size was assessed by measuring perpendicular diameters with a caliper and calculated by multiplying the measurements of diameters in two dimensions. Data are represented as the mean +/−SD of 6 mice in each group.] It is clear that most immune cells and cancer cells can express more than one TNF receptor (even more than one death receptor) and ligand superfamily member. […] Moreover, the expression of these ligands and receptors may differ at the level of individual cell types within tissues and the expression level on the same cell type may also differ.
The full length TNF-gamma and extracellular domain of DR3 was cloned into pcDNA3 expression vector (Invitrogen, Carlsbad, Calif.) and transfected to MCA 38 cells, respectively. […] Mice then were randomized and tumors were measured twice weekly. The tumor size was assessed by measuring perpendicular diameters with a caliper and calculated by multiplying the measurements of diameters in two dimensions. […]

Substance: TNF-gamma: new member of the tumor necrosis factor family; the term refers to TNF-gamma-alpha and/or TNF-gamma-beta
- morphology change (killed cells) ([1]; L929, 0.5 μg/ml, photographs after 72 hours (FIG. 8)): induced a morphology change which appeared as dark round cells (indicating killed cells)
- Adhesion ([1]; L929, mouse fibroblast): −−
- Differentiation ([1]; L929, mouse fibroblast): −−
- Proliferation ([1]; L929, mouse fibroblast): −
- inhibition of L929 cell growth ([1]; MTS assay, increasing amounts added): but not of the fibroblast cell line L929
- angiogenic process in bFGF-implanted corneas ([2]; bFGF (300 ng) implant, conjunctival injection once a day for four days, 10 micrograms TNF-gamma or 5 micrograms angiostatin, seven days after surgery, vs PBS): significantly slowed down the angiogenic process
- vessel growth in PBS-implanted corneas ([2]; multiple conjunctival injections): no obvious vessel growth
- concentration giving peak activation of DNA-binding by p65 ([3]; 12 hours): 1 µg/mL
- lowest concentration giving an observable increase in p65 DNA-binding ([3]; 12 hours): 0.2 µg/mL
- time span of p65 DNA-binding activation over basal levels ([3]; after initiation of treatment): from 30 minutes to 18 hours
- tumor growth [4]: caused complete tumor suppression

— US20030129189A1, “Tumor necrosis factor-gamma” (priority 1994, published 2003)
